Assay results: PubChem BioAssay (NCI)
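Compound exposure: 48 hours, 5 concentrations, 96-well plates. TGI marks complete inhibition of growth.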

What was measured:
Experiment in all cases: NCI-60 cell line screen, 48 h
A498 renal = test system: A498 renal
ACHN renal = test system: ACHN renal
CCRF-CEM leukemia = test system: CCRF-CEM leukemia
COLO 205 colon = test system: COLO 205 colon
DMS 114 small cell lung = test system: DMS 114 small cell lung
HL-60(TB) leukemia = test system: HL-60(TB) leukemia
HOP-62 NSCLC = test system: HOP-62 NSCLC
HOP-92 NSCLC = test system: HOP-92 NSCLC
HT29 colon = test system: HT29 colon
IGROV1 ovarian = test system: IGROV1 ovarian
K-562 leukemia = test system: K-562 leukemia
KM12 colon = test system: KM12 colon
KM20L2 colon = test system: KM20L2 colon
LXFL 529 NSCLC = test system: LXFL 529 NSCLC
M14 melanoma = test system: M14 melanoma
M19-MEL melanoma = test system: M19-MEL melanoma
MOLT-4 leukemia = test system: MOLT-4 leukemia
NCI-H23 lung = test system: NCI-H23 lung
NCI-H460 lung = test system: NCI-H460 lung
NCI-H522 lung = test system: NCI-H522 lung
OVCAR-3 ovarian = test system: OVCAR-3 ovarian
OVCAR-4 ovarian = test system: OVCAR-4 ovarian
OVCAR-5 ovarian = test system: OVCAR-5 ovarian
RPMI-8226 leukemia = test system: RPMI-8226 leukemia
RXF 393 renal = test system: RXF 393 renal
SF-268 CNS = test system: SF-268 CNS
SF-295 CNS = test system: SF-295 CNS
SF-539 CNS = test system: SF-539 CNS
SK-MEL-2 melanoma = test system: SK-MEL-2 melanoma
SK-MEL-28 melanoma = test system: SK-MEL-28 melanoma
SK-OV-3 ovarian = test system: SK-OV-3 ovarian
SNB-19 CNS = test system: SNB-19 CNS
SNB-75 CNS = test system: SNB-75 CNS
SNB-78 CNS = test system: SNB-78 CNS
SR leukemia = test system: SR leukemia
U251 CNS = test system: U251 CNS
UACC-257 melanoma = test system: UACC-257 melanoma
UACC-62 melanoma = test system: UACC-62 melanoma
UO-31 renal = test system: UO-31 renal
786-0 renal = test system: 786-0 renal
A549 NSCLC = test system: A549 NSCLC
BT-549 breast = test system: BT-549 breast
CAKI-1 renal = test system: CAKI-1 renal
DU-145 prostate = test system: DU-145 prostate
EKVX NSCLC = test system: EKVX NSCLC
HCC-2998 colon = test system: HCC-2998 colon
HCT-116 colon = test system: HCT-116 colon
HCT-15 colon = test system: HCT-15 colon
HS 578T breast = test system: HS 578T breast
LOX IMVI melanoma = test system: LOX IMVI melanoma
MALME-3M melanoma = test system: MALME-3M melanoma
MCF7 breast = test system: MCF7 breast
MDA-MB-231 breast = test system: MDA-MB-231 breast
MDA-MB-435 = test system: MDA-MB-435
MDA-N = test system: MDA-N
NCI-H226 lung = test system: NCI-H226 lung
NCI/ADR-RES ovarian = test system: NCI/ADR-RES ovarian
OVCAR-8 ovarian = test system: OVCAR-8 ovarian
PC-3 prostate = test system: PC-3 prostate
SK-MEL-5 melanoma = test system: SK-MEL-5 melanoma
SN12C renal = test system: SN12C renal
SW-620 colon = test system: SW-620 colon
T-47D breast = test system: T-47D breast
TK-10 renal = test system: TK-10 renal

## CCO[C@@H]1OC(=O)[C@](C)(C(C)=O)[C@@H]1C
A498 renal
  TGI: > 100 µM
ACHN renal
  TGI: > 100 µM
CCRF-CEM leukemia
  TGI: 89.5 µM
COLO 205 colon
  TGI: > 100 µM
DMS 114 small cell lung
  TGI: > 100 µM
HL-60(TB) leukemia
  TGI: 79.6 µM
HOP-62 NSCLC
  TGI: > 100 µM
HOP-92 NSCLC
  TGI: > 100 µM
HT29 colon
  TGI: > 100 µM
IGROV1 ovarian
  TGI: > 100 µM
K-562 leukemia
  TGI: > 100 µM
KM12 colon
  TGI: > 100 µM
KM20L2 colon
  TGI: > 100 µM
LXFL 529 NSCLC
  TGI: > 100 µM
M14 melanoma
  TGI: > 100 µM
M19-MEL melanoma
  TGI: > 100 µM
MOLT-4 leukemia
  TGI: > 100 µM
NCI-H23 lung
  TGI: 60.1 µM
NCI-H460 lung
  TGI: > 100 µM
NCI-H522 lung
  TGI: > 100 µM
OVCAR-3 ovarian
  TGI: > 100 µM
OVCAR-4 ovarian
  TGI: > 100 µM
OVCAR-5 ovarian
  TGI: > 100 µM
RPMI-8226 leukemia
  TGI: > 100 µM
RXF 393 renal
  TGI: > 100 µM
SF-268 CNS
  TGI: 67.8 µM
SF-295 CNS
  TGI: > 100 µM
SF-539 CNS
  TGI: > 100 µM
SK-MEL-2 melanoma
  TGI: > 100 µM
SK-MEL-28 melanoma
  TGI: > 100 µM
SK-OV-3 ovarian
  TGI: > 100 µM
SNB-19 CNS
  TGI: > 100 µM
SNB-75 CNS
  TGI: 98.4 µM
SNB-78 CNS
  TGI: > 100 µM
SR leukemia
  TGI: > 100 µM
U251 CNS
  TGI: > 100 µM
UACC-257 melanoma
  TGI: > 100 µM
UACC-62 melanoma
  TGI: > 100 µM
UO-31 renal
  TGI: > 100 µM

## Cc1c(N=Nc2ccc([N+](=O)[O-])cc2)nc2scc(-c3ccccc3)n12
786-0 renal
  TGI: > 100 µM
A498 renal
  TGI: > 100 µM
A549 NSCLC
  TGI: > 100 µM
ACHN renal
  TGI: > 100 µM
BT-549 breast
  TGI: > 100 µM
CAKI-1 renal
  TGI: > 100 µM
CCRF-CEM leukemia
  TGI: > 73.4 µM
COLO 205 colon
  TGI: > 100 µM
DU-145 prostate
  TGI: > 100 µM
EKVX NSCLC
  TGI: > 100 µM
HCC-2998 colon
  TGI: > 100 µM
HCT-116 colon
  TGI: > 100 µM
HCT-15 colon
  TGI: > 92.2 µM
HL-60(TB) leukemia
  TGI: 49.2 µM
HOP-62 NSCLC
  TGI: > 100 µM
HOP-92 NSCLC
  TGI: > 100 µM
HS 578T breast
  TGI: > 100 µM
HT29 colon
  TGI: > 100 µM
IGROV1 ovarian
  TGI: > 100 µM
K-562 leukemia
  TGI: > 100 µM
KM12 colon
  TGI: > 100 µM
LOX IMVI melanoma
  TGI: > 100 µM
M14 melanoma
  TGI: > 100 µM
MALME-3M melanoma
  TGI: > 100 µM
MCF7 breast
  TGI: > 100 µM
MDA-MB-231 breast
  TGI: > 100 µM
MDA-MB-435
  TGI: > 100 µM
MDA-N
  TGI: > 100 µM
MOLT-4 leukemia
  TGI: > 100 µM
NCI-H226 lung
  TGI: > 100 µM
NCI-H23 lung
  TGI: > 100 µM
NCI-H460 lung
  TGI: > 100 µM
NCI-H522 lung
  TGI: > 100 µM
NCI/ADR-RES ovarian
  TGI: > 100 µM
OVCAR-3 ovarian
  TGI: > 100 µM
OVCAR-4 ovarian
  TGI: > 100 µM
OVCAR-5 ovarian
  TGI: > 100 µM
OVCAR-8 ovarian
  TGI: > 100 µM
PC-3 prostate
  TGI: > 100 µM
RPMI-8226 leukemia
  TGI: > 100 µM
RXF 393 renal
  TGI: > 100 µM
SF-268 CNS
  TGI: > 100 µM
SF-295 CNS
  TGI: > 100 µM
SF-539 CNS
  TGI: > 100 µM
SK-MEL-2 melanoma
  TGI: > 100 µM
SK-MEL-28 melanoma
  TGI: > 100 µM
SK-MEL-5 melanoma
  TGI: > 100 µM
SK-OV-3 ovarian
  TGI: > 100 µM
SN12C renal
  TGI: > 100 µM
SNB-19 CNS
  TGI: > 100 µM
SNB-75 CNS
  TGI: > 100 µM
SR leukemia
  TGI: 56.4 µM
SW-620 colon
  TGI: > 100 µM
T-47D breast
  TGI: > 100 µM
TK-10 renal
  TGI: > 100 µM
U251 CNS
  TGI: > 100 µM
UACC-257 melanoma
  TGI: > 100 µM
UACC-62 melanoma
  TGI: > 100 µM
UO-31 renal
  TGI: > 100 µM
